In patent publication US6017947A, “Heterocyclic carbodithioperoxyimidic compounds useful for the inhibition of the replication of HIV” (priority 1999, dated 2000):
Where “and” joins values, the source holds several entries; their conditions need not be identical. Equal entries are not always repeated.

Columns and labels:
HIV-1(IIIB) = assay: Inhibition of HIV-1 induced syncytium formation in CEM cells, HIV-1(IIIB) (WT); format: cell-based; conditions: day 4 post infection
Description: Cells and Viruses CEM cells were obtained from the […] (Rockville, Md.). HIV-l(IIIB) was originally obtained from the culture supernatant of persistently HIV-1-infected H9 cells and was provided by R. C. Gallo and M. Popovic (National Cancer Institute, National Institutes of Health, Bethesda, Md.).
(§1) CEM cells were suspended at ≈300,000 cells per ml of culture medium and infected with approximately 100 CCID50 (CCID50 being the 50% cell culture infective dose) of HIV-1(IIIB) (designated as "WT" in Table 3) or one of the HIV-1 RT mutant strains described above. Then 100 μl of the infected cell suspensions was added to 200 μl microtiter plate wells containing 100 μl of appropriate serial (5-fold) dilutions of the test compounds. The inhibitiory effect of the test compounds on HIV-1 induced syncytium formation in CEM cells was examined microscopically on day 4 post infection. The 50% effective concentration (EC50) was defined as the test compound concentration that inhibits syncytium formation in the HIV-1-infected cell cultures by 50%.

HIV-1/100-Ile = assay: Inhibition of HIV-1 induced syncytium formation in CEM cells, RT mutant 100-Ile; format: cell-based; conditions: Human immunodeficiency virus 1, CCRF-CEM, 96 h
Description: (§2) The selection and characterization of the HIV-1 RT mutant strains were done as follows: HIV-1/100-Ile ("100-Ile") was selected for resistance against TIBO R82150 as described in Balzarini et al, Virology 192: 246-253 (1993); HIV-1/103-Asn ("103-Asn") was selected for resistance against TIBO R82913 as described in Balzarini et al, Virology 192: 246-253 (1993); HIV-1/106-Ala ("106-Ala") was selected for resistance against nevirapine as described in Balzarini et al, J. Virol. 67: 5353-5359 (1993); HIV-1/Lys-138 ("ys-138") was selected for resistance against TSAO-m^3 T as described in Balzarini et al, Virology 192: 246-253 (1993) and Balzarini et al, Proc. Nat. Acad. Sci. USA 90: 6952-6956 (1993); HIV-1/181-Cys ("181-Cys") was selected for resistance against pyridinone L-697,661 as described in Balzarini et al, Virology 192: 246-253 (1993); and HIV-1/188-His ("188-His") was selected for resistance against HEPT as described in Balzarini et al, Mol. Pharmocol. 44: 694-701 (1993). 188-His was then further converted to HIV-1/188-Leu("188-Leu") upon further passage in cell culture in the absence of the HEPT. HIV-1/101-Glu ("101-Glu") and HIV-1/190-Glu ("190-Glu") were selected for resistance against the thiocarboxanilide derivative designated as UC38 as described in Balzarini et al, Antiviral Research 27: 219-236 (1995). HIV-1/184-Ile ("184-Ile") was selected for resistance against the combination of 3TC and TSAO-m^3 T as described in Balzarini et al, Molecular Pharm. 49: 882-890 (1996). HIV-1/184-Val ("184-Val") was selected for resistance against 3TC as described in Balzarini et al, Molecular Pharm. 49: 882-890 (1996).
as §1

HIV-1/101-Glu = assay: Inhibition of HIV-1 induced syncytium formation in CEM cells, RT mutant 101-Glu; format: cell-based; conditions: Human immunodeficiency virus 1, CCRF-CEM, 96 h
Description: as §2, §1

HIV-1/103-Asn = assay: Inhibition of HIV-1 induced syncytium formation in CEM cells, RT mutant 103-Asn; format: cell-based; conditions: Human immunodeficiency virus 1, CCRF-CEM, 96 h
Description: as §2, §1

HIV-1/106-Ala = assay: Inhibition of HIV-1 induced syncytium formation in CEM cells, RT mutant 106-Ala; format: cell-based; conditions: Human immunodeficiency virus 1, CCRF-CEM, 96 h
Description: as §2, §1

HIV-1/Lys-138 = assay: Inhibition of HIV-1 induced syncytium formation in CEM cells, RT mutant 138-Lys; format: cell-based; conditions: Human immunodeficiency virus 1, CCRF-CEM, 96 h
Description: as §2, §1

HIV-1/181-Cys = assay: Inhibition of HIV-1 induced syncytium formation in CEM cells, RT mutant 181-Cys; format: cell-based; conditions: Human immunodeficiency virus 1, CCRF-CEM, 96 h
Description: as §2, §1

HIV-1/184-Ile = assay: Inhibition of HIV-1 induced syncytium formation in CEM cells, RT mutant 184-Ile; format: cell-based; conditions: Human immunodeficiency virus 1, CCRF-CEM, 96 h
Description: as §2, §1

HIV-1/184-Val = assay: Inhibition of HIV-1 induced syncytium formation in CEM cells, RT mutant 184-Val; format: cell-based; conditions: Human immunodeficiency virus 1, CCRF-CEM, 96 h
Description: as §2, §1

HIV-1/188-His = assay: Inhibition of HIV-1 induced syncytium formation in CEM cells, RT mutant 188-His; format: cell-based; conditions: Human immunodeficiency virus 1, CCRF-CEM, 96 h
Description: as §2, §1

HIV-1/188-Leu = assay: Inhibition of HIV-1 induced syncytium formation in CEM cells, RT mutant 188-Leu; format: cell-based; conditions: Human immunodeficiency virus 1, CCRF-CEM, 96 h
Description: as §2, §1

HIV-1/190-Glu = assay: Inhibition of HIV-1 induced syncytium formation in CEM cells, RT mutant 190-Glu; format: cell-based; conditions: Human immunodeficiency virus 1, CCRF-CEM, 96 h
Description: as §2, §1

[1] = tested on: HIV-1 strains containing the 100 Leu→Ile mutation in their RT; conditions: cited from earlier work
[2] = tested on: 181 Tyr→Cys mutation in the RT of HIV-1 strains; conditions: cited from earlier work
[3] = Human immunodeficiency virus 1, IIIB, CCRF-CEM, 96 h, Table 2, HIV-1(IIIB), repeat values
[4] = Human immunodeficiency virus 1, IIIB, CCRF-CEM, 96 h, Table 3, WT (HIV-1(IIIB))
[5] = Table 2, HIV-1(IIIB), repeat values

Structure (SMILES) | EC50 (HIV-1(IIIB); [3]) | EC50 (HIV-1(IIIB); [4]) | EC50 (HIV-1(IIIB); [5]) | EC50 (HIV-1/100-Ile) | EC50 (HIV-1/101-Glu) | EC50 (HIV-1/103-Asn) | EC50 (HIV-1/106-Ala) | EC50 (HIV-1/Lys-138) | EC50 (HIV-1/181-Cys) | EC50 (HIV-1/184-Ile) | EC50 (HIV-1/184-Val) | EC50 (HIV-1/188-His) | EC50 (HIV-1/188-Leu) | EC50 (HIV-1/190-Glu) | resistance of the mutant strain to the compound [1] | resistance of the mutant strain to the compound [2]
CSSC(=Nc1ccc(Cl)c(OCCC(C)C)c1)c1ccoc1C [Compound 6] | 83.7 nM | 0.012 µg/mL | 80.4 nM | 0.25 µg/mL | 0.13 µg/mL | 0.65 µg/mL | 0.13 µg/mL | 0.15 µg/mL | 0.29 µg/mL | 0.02 µg/mL | 0.008 µg/mL | ≥ 2 µg/mL | > 2 µg/mL | > 2 µg/mL | – | –
CSSC(=Nc1ccc(Cl)c(OCCC(C)C)c1)c1ccsc1C [Compound 1, N-[4-chloro-3-(3-methylbutoxy)-phenyl]-2-methyl-3-thiophenecarbodithioperoxyimidic acid methyl ester] | – | – | 104 nM and 186 nM | – | – | – | – | – | – | – | – | – | – | – | – | –
CC(C)=CCOc1cc(N=C(SSc2ccccc2)c2ccoc2C)ccc1Cl [Compound 10] | – | 0.05 µg/mL | – | 1.5 µg/mL | 0.2 µg/mL | ≥ 2 µg/mL | 0.5 µg/mL | 0.23 µg/mL | ≥ 2 µg/mL | 0.09 µg/mL | 0.053 µg/mL | ≥ 2 µg/mL | > 2 µg/mL | > 2 µg/mL | – | –
CC(C)=CCN1Cc2cccc3[nH]c(=S)n(c23)C[C@@H]1C [Compound R82150] | – | – | – | – | – | – | – | – | – | – | – | – | – | – | resistant | –
Cc1occc1C(=Nc1ccc(Cl)c(C=NOC(C)(C)C)c1)SSc1ccccc1 [Compound 8] | 156 nM | 0.03 µg/mL | 83.2 nM | 0.65 µg/mL | 0.2 µg/mL | ≥ 2 µg/mL | 0.7 µg/mL | 0.18 µg/mL | 0.23 µg/mL | 0.03 µg/mL | 0.018 µg/mL | ≥ 2 µg/mL | > 2 µg/mL | > 2 µg/mL | – | –
CSSC(=Nc1ccc(Cl)c(C=NOC(C)(C)C)c1)c1ccoc1C [Compound 3] | 128 nM | 0.018 µg/mL | 121 nM | 0.47 µg/mL | 0.14 µg/mL | 1.33 µg/mL | 0.18 µg/mL | 0.1 µg/mL | 0.1 µg/mL | 0.03 µg/mL | 0.12 µg/mL | 0.8 µg/mL | 1.35 µg/mL | > 2 µg/mL | – | –
CSSC(=Nc1ccc(Cl)c(OCC=C(C)C)c1)c1ccoc1C [Compound 4] | – | 0.0018 µg/mL | – | 0.053 µg/mL | 0.027 µg/mL | 0.15 µg/mL | 0.018 µg/mL | 0.008 µg/mL | 0.08 µg/mL | 0.0032 µg/mL | 0.0015 µg/mL | 0.85 µg/mL | 0.58 µg/mL | > 2 µg/mL | – | –
CSSC(=Nc1ccc(Cl)c(COc2ccccc2Cl)c1)c1ccoc1C [Compound 7] | 48.6 nM | 0.0075 µg/mL | 53.3 nM | 0.93 µg/mL | 0.34 µg/mL | ≥ 2 µg/mL | 0.55 µg/mL | 0.13 µg/mL | 0.47 µg/mL | 0.02 µg/mL | 0.009 µg/mL | 0.65 µg/mL | 0.7 µg/mL | > 2 µg/mL | – | –
CC(C)=CCN1Cc2cc(Cl)cc3[nH]c(=S)n(c23)C[C@@H]1C [TIBO R82913] | – | – | – | – | – | – | – | – | – | – | – | – | – | – | resistant | –
CC(C)=CCOc1cc(N=C(SN2CCOCC2)c2ccoc2C)ccc1Cl [Compound 11] | 16.3 nM | – | 12.4 nM | – | – | – | – | – | – | – | – | – | – | – | – | –
CSSC(=Nc1ccc(Cl)c(C=NOC(C)C)c1)c1ccoc1C [Compound 5, N-[4-chloro-3-[[(1-methylethoxy)imino]-methyl]phenyl]-2-methyl-3-furancarbodithioperoxyimidic acid methyl ester] | 73.2 nM | 0.0075 µg/mL | 43.1 nM | 0.25 µg/mL | 0.13 µg/mL | 0.85 µg/mL | 0.1 µg/mL | 0.1 µg/mL | 0.18 µg/mL | 0.013 µg/mL | 0.0075 µg/mL | 0.7 µg/mL | 0.95 µg/mL | > 2 µg/mL | – | –
Cc1ccnc2c1NC(=O)c1cccnc1N2C1CC1 [nevirapine] | – | – | – | – | – | – | – | – | – | – | – | – | – | – | – | resistant
CSSC(=Nc1ccc(Cl)c(OCC=C(C)C)c1)c1cc(C)oc1C [Compound 9, N-[4-chloro-3-[(3-methyl-2-butenyl)oxy]phenyl]-2,5-dimethyl-3-furancarbodithioperoxyimidic acid methyl ester] | 65 nM | 0.0097 µg/mL | 66.9 nM | ≥ 2 µg/mL | 0.28 µg/mL | ≥ 2 µg/mL | 0.2 µg/mL | 0.09 µg/mL | 0.7 µg/mL | 0.05 µg/mL | 0.009 µg/mL | ≥ 2 µg/mL | ≥ 2 µg/mL | > 2 µg/mL | – | –
